Test results reported in ChEMBL document CHEMBL4507258 (2021).

What was measured:
[1] = target: Ephrin type-A receptor 2 (Homo sapiens) (UniProt P29317); conditions: Compound concentration 1000.0 nM
[2] = tested on: Hepatocyte growth factor receptor (Homo sapiens), P08581 [Y1235D]; conditions: Compound concentration 1000.0 nM
[3] = target: 5-hydroxytryptamine receptor 2A (Homo sapiens) (UniProt P28223); conditions: Compound concentration 10.0 uM
[4] = tested on: Epidermal growth factor receptor (Homo sapiens), P00533 [T790M]; conditions: Compound concentration 1000.0 nM
[5] = target: Tyrosine-protein kinase Fgr (Homo sapiens) (UniProt P09769); conditions: Compound concentration 1000.0 nM
[6] = target: Megakaryocyte-associated tyrosine-protein kinase (Homo sapiens) (UniProt P42679); conditions: Compound concentration 1000.0 nM
[7] = target: Dual specificity tyrosine-phosphorylation-regulated kinase 1A (Homo sapiens) (UniProt Q13627); conditions: Compound concentration 1000.0 nM
[8] = target: Cyclin-dependent kinase 18 (Homo sapiens) (UniProt Q07002); conditions: Compound concentration 1000.0 nM
[9] = target: Testis-specific serine/threonine-protein kinase 3 (Homo sapiens) (UniProt Q96PN8); conditions: Compound concentration 1000.0 nM
[10] = tested on: Mast/stem cell growth factor receptor Kit (Homo sapiens), P10721 [A829P]; conditions: Compound concentration 1000.0 nM
[11] = target: SNF-related serine/threonine-protein kinase (Homo sapiens) (UniProt Q9NRH2); conditions: Compound concentration 1000.0 nM
[12] = target: Rhodopsin kinase GRK7 (Homo sapiens) (UniProt Q8WTQ7); conditions: Compound concentration 1000.0 nM
[13] = tested on: Mast/stem cell growth factor receptor Kit (Homo sapiens), P10721 [V559D,V654A]; conditions: Compound concentration 1000.0 nM
[14] = target: Serine/threonine-protein kinase Sgk2 (Homo sapiens) (UniProt Q9HBY8); conditions: Compound concentration 1000.0 nM
[15] = target: cAMP-dependent protein kinase catalytic subunit beta (Homo sapiens) (UniProt P22694); conditions: Compound concentration 1000.0 nM
[16] = tested on: Tyrosine-protein kinase ABL1 (Homo sapiens), P00519 [Y253F]; conditions: Compound concentration 1000.0 nM
[17] = target: Casein kinase I isoform alpha (Homo sapiens) (UniProt P48729); conditions: Compound concentration 1000.0 nM
[18] = tested on: Serine/threonine-protein kinase B-raf (Homo sapiens), P15056 [V600E]; conditions: Compound concentration 1000.0 nM
[19] = target: RAC-alpha serine/threonine-protein kinase (Homo sapiens) (UniProt P31749); conditions: Compound concentration 1000.0 nM
[20] = target: Receptor tyrosine-protein kinase erbB-3 (Homo sapiens) (UniProt P21860); conditions: Compound concentration 1000.0 nM
[21] = target: Phosphatidylinositol 4-phosphate 5-kinase type-1 gamma (Homo sapiens) (UniProt O60331); conditions: Compound concentration 1000.0 nM
[22] = target: Misshapen-like kinase 1 (Homo sapiens) (UniProt Q8N4C8); conditions: Compound concentration 1000.0 nM
[23] = target: Dual specificity mitogen-activated protein kinase kinase 7 (Homo sapiens) (UniProt O14733); conditions: Compound concentration 1000.0 nM
[24] = target: Casein kinase II subunit alpha' (Homo sapiens) (UniProt P19784); conditions: Compound concentration 1000.0 nM
[25] = target: Serine/threonine-protein kinase PAK 3 (Homo sapiens) (UniProt O75914); conditions: Compound concentration 1000.0 nM
[26] = target: Serine/threonine-protein kinase D1 (Homo sapiens) (UniProt Q15139); conditions: Compound concentration 1000.0 nM
[27] = tested on: Receptor-type tyrosine-protein kinase FLT3 (Homo sapiens), P36888 [K663Q]; conditions: Compound concentration 1000.0 nM
[28] = target: Serine/threonine-protein kinase PknB (Mycobacterium tuberculosis) (UniProt P9WI81); conditions: Compound concentration 1000.0 nM
[29] = tested on: eIF-2-alpha kinase GCN2 (Homo sapiens), Q9P2K8 [S808G]; conditions: Compound concentration 1000.0 nM
[30] = target: Mitogen-activated protein kinase kinase kinase kinase 3 (Homo sapiens) (UniProt Q8IVH8); conditions: Compound concentration 1000.0 nM
[31] = target: Tyrosine-protein kinase Lck (Homo sapiens) (UniProt P06239); conditions: Compound concentration 1000.0 nM
[32] = target: Serine/threonine-protein kinase PLK4 (Homo sapiens) (UniProt O00444); conditions: Compound concentration 1000.0 nM
[33] = target: Calcium/calmodulin-dependent protein kinase kinase 2 (Homo sapiens) (UniProt Q96RR4); conditions: Compound concentration 1000.0 nM
[34] = target: Aurora kinase C (Homo sapiens) (UniProt Q9UQB9); conditions: Compound concentration 1000.0 nM
[35] = target: Calcium/calmodulin-dependent protein kinase type 1 (Homo sapiens) (UniProt Q14012); conditions: Compound concentration 1000.0 nM
[36] = target: NT-3 growth factor receptor (Homo sapiens) (UniProt Q16288); conditions: Compound concentration 1000.0 nM
[37] = target: Serine/threonine-protein kinase VRK2 (Homo sapiens) (UniProt Q86Y07); conditions: Compound concentration 1000.0 nM
[38] = target: Ribosomal protein S6 kinase alpha-2 (Homo sapiens) (UniProt Q15349); conditions: Compound concentration 1000.0 nM
[39] = target: Calcium-dependent protein kinase 1 (Plasmodium falciparum) (UniProt P62344); conditions: Compound concentration 1000.0 nM
[40] = target: Serine/threonine-protein kinase MARK2 (Homo sapiens) (UniProt Q7KZI7); conditions: Compound concentration 1000.0 nM
[41] = target: Ankyrin repeat and protein kinase domain-containing protein 1 (Homo sapiens) (UniProt Q8NFD2); conditions: Compound concentration 1000.0 nM
[42] = target: RAC-beta serine/threonine-protein kinase (Homo sapiens) (UniProt P31751); conditions: Compound concentration 1000.0 nM
[43] = target: Phosphatidylinositol 5-phosphate 4-kinase type-2 beta (Homo sapiens) (UniProt P78356); conditions: Compound concentration 1000.0 nM
[44] = target: Tyrosine-protein kinase SYK (Homo sapiens) (UniProt P43405); conditions: Compound concentration 1000.0 nM
[45] = tested on: Tyrosine-protein kinase ABL1 (Homo sapiens), P00519 [E255K]; conditions: Compound concentration 1000.0 nM

Chain of SNF-related serine/threonine-protein kinase (Homo sapiens) (Q9NRH2 whole entry): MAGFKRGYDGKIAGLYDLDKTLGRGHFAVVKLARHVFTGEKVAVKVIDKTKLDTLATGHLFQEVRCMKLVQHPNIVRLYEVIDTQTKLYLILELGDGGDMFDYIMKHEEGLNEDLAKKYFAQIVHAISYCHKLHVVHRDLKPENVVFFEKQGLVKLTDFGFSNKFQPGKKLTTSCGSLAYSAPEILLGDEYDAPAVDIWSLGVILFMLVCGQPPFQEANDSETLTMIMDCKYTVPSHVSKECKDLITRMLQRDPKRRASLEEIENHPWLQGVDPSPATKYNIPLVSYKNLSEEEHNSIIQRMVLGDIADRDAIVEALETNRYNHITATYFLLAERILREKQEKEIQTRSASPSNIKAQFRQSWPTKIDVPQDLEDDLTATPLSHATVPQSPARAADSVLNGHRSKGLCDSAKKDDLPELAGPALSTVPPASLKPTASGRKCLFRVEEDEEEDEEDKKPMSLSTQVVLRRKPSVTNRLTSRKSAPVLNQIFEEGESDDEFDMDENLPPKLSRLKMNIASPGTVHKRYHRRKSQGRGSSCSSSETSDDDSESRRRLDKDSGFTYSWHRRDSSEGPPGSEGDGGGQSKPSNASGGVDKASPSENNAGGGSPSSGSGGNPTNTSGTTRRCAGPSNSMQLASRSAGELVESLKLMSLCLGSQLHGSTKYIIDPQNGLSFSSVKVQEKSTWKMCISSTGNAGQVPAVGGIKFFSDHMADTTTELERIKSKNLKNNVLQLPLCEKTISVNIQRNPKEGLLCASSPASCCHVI
Chain of Serine/threonine-protein kinase MARK2 (Homo sapiens) (Q7KZI7 whole entry, the tested form may be a part): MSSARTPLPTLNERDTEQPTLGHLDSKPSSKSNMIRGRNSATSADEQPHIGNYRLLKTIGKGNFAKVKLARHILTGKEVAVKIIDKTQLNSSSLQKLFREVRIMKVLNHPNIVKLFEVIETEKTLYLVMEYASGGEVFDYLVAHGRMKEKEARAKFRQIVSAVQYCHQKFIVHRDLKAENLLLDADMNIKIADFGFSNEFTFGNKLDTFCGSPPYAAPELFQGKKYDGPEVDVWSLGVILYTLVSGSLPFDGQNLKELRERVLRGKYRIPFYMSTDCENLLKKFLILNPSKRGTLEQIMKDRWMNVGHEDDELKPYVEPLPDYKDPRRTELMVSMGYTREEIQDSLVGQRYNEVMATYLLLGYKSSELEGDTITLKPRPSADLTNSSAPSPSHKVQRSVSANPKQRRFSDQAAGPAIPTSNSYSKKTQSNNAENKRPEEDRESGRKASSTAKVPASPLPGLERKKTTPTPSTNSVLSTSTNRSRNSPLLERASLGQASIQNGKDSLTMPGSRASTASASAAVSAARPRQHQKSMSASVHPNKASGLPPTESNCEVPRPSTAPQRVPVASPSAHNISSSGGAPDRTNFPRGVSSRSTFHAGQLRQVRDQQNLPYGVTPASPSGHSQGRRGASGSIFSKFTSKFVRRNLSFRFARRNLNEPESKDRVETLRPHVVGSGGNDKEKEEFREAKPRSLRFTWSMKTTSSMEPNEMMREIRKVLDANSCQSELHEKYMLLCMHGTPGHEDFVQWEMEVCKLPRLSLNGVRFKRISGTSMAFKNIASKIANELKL
Chain of Calcium/calmodulin-dependent protein kinase type 1 (Homo sapiens) (Q14012 whole entry, looked up): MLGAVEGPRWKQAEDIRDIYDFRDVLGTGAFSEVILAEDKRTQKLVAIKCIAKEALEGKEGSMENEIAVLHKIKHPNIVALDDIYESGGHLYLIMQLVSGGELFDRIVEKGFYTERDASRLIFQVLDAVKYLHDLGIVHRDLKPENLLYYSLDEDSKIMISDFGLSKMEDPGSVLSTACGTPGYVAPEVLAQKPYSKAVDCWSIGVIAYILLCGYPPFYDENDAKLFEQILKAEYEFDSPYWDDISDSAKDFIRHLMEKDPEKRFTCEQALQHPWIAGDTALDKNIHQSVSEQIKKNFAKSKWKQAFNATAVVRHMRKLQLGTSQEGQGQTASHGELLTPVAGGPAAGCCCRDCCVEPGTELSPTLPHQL
Chain of Mast/stem cell growth factor receptor Kit (Homo sapiens), P10721 [A829P] (P10721 whole entry A829P): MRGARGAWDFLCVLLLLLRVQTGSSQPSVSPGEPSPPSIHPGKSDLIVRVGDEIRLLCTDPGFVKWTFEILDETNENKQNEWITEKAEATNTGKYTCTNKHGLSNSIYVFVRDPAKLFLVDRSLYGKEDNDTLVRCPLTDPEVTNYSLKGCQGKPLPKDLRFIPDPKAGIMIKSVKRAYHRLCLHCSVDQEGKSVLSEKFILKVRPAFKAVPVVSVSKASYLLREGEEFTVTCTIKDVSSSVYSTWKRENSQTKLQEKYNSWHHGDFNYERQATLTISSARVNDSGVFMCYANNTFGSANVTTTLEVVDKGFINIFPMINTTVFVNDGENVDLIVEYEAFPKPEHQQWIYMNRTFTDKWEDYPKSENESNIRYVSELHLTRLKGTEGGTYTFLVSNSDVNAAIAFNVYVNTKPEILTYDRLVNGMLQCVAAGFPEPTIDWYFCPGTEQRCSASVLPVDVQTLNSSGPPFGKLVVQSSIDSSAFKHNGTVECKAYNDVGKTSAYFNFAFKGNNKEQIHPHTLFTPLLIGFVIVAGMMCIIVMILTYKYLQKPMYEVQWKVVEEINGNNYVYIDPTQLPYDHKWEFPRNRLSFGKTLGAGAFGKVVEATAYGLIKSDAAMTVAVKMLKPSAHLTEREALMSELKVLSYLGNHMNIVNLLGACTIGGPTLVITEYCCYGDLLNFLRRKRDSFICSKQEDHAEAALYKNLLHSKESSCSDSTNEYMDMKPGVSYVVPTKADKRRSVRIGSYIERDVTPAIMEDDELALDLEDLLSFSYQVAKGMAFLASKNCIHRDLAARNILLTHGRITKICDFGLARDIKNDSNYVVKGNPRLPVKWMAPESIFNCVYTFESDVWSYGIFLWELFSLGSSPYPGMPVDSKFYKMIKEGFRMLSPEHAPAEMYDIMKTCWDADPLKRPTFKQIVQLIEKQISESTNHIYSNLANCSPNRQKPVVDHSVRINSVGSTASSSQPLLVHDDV
Chain of Ribosomal protein S6 kinase alpha-2 (Homo sapiens) (Q15349 whole entry): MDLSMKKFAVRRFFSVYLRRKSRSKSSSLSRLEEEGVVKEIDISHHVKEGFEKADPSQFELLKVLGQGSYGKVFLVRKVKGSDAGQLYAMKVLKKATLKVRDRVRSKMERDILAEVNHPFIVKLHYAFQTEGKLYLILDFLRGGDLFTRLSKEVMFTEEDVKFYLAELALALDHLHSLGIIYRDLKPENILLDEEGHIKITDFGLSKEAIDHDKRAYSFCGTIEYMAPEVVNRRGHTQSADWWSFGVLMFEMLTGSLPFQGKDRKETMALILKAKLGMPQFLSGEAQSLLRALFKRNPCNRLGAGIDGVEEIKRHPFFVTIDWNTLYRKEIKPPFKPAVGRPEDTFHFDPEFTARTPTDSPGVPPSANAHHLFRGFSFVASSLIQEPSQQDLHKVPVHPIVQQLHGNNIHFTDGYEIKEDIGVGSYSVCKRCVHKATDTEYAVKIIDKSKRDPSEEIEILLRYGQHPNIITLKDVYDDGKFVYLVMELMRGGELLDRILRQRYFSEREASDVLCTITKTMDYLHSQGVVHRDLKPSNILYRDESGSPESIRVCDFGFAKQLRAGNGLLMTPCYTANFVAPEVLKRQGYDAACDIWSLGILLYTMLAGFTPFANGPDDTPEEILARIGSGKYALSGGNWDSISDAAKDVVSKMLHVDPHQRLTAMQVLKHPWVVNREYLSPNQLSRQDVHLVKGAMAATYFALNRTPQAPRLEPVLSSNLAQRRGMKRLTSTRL
Chain of Megakaryocyte-associated tyrosine-protein kinase (Homo sapiens) (P42679 whole entry): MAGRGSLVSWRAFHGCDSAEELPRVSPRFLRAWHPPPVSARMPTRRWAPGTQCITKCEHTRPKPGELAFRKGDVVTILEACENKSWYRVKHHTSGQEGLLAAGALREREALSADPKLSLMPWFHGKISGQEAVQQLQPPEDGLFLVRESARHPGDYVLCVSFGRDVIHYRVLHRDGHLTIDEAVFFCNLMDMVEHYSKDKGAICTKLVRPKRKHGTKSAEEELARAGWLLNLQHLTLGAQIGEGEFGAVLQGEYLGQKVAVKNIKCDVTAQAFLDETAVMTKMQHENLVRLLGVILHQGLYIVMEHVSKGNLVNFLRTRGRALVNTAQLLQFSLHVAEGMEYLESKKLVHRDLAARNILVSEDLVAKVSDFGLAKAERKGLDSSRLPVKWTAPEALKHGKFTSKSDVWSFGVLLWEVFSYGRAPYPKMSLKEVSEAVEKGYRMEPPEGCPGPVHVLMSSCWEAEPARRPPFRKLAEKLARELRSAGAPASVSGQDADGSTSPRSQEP
Chain of Aurora kinase C (Homo sapiens) (Q9UQB9 whole entry): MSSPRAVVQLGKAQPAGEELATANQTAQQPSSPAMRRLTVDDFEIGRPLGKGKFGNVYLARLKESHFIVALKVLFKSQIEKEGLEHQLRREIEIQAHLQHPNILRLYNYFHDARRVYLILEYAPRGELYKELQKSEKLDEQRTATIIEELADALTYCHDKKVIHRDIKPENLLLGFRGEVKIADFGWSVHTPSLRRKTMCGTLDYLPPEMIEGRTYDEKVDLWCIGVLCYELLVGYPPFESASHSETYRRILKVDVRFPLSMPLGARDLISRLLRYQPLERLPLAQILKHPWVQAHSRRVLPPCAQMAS
Chain of Calcium/calmodulin-dependent protein kinase kinase 2 (Homo sapiens) (Q96RR4 2-588 limits assumed): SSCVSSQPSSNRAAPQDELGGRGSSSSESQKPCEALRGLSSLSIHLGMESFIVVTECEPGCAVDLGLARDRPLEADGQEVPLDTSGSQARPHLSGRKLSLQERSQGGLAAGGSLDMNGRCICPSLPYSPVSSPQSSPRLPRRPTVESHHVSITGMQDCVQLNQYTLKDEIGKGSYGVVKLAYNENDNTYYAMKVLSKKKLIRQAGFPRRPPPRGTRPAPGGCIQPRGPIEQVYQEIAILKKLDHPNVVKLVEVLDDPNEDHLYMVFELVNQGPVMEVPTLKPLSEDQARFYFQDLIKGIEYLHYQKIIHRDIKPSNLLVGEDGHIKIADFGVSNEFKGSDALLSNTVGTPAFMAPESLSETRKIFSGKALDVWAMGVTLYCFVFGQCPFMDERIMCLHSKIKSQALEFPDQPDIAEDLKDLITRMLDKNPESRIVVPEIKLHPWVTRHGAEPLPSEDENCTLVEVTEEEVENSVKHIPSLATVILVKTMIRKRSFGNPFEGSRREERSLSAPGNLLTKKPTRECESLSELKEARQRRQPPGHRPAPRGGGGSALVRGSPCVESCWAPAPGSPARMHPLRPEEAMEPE

CCCCN(CCCC)C(=O)CN1C[C@@H](c2cc(OC)c3c(c2)OCO3)[C@H](C(=O)O)[C@H]1CC(C)(C)CCC [A-545]
inactive: residual activity [1] 97.8% | residual activity [2] 100% | inhibition [3] 7.84% | residual activity [4] 86.7% | residual activity [5] 92.4% | residual activity [6] 100% | residual activity [7] 96.3% | residual activity [8] 92.4% | residual activity [9] 100% | residual activity [10] 76.5% | residual activity [11] 98.4% | residual activity [12] 90.8% | residual activity [13] 100% | residual activity [14] 78.5% | residual activity [15] 100% | residual activity [16] 100% | residual activity [17] 99.1% | residual activity [18] 100% | residual activity [19] 85.7% | residual activity [20] 100% | residual activity [21] 100% | residual activity [22] 100% | residual activity [23] 88.6% | residual activity [24] 77.1% | residual activity [25] 89.4% | residual activity [26] 100% | residual activity [27] 80.1% | residual activity [28] 92.8% | residual activity [29] 100% | residual activity [30] 94.1% | residual activity [31] 99.1% | residual activity [32] 84.1% | residual activity [33] 87.2% | residual activity [34] 100% | residual activity [35] 100% | residual activity [36] 87.6% | residual activity [37] 95.4% | residual activity [38] 84.7% | residual activity [39] 86.9% | residual activity [40] 100% | residual activity [41] 95.7% | residual activity [42] 100% | residual activity [43] 59.8% | residual activity [44] 100% | residual activity [45] 93.5%

CCCCN(CCCC)C(=O)CN1C[C@H](c2cc(OC)c3c(c2)OCO3)[C@@H](C(=O)O)[C@@H]1CC(C)(C)CCC [ABT-546]
inactive: residual activity [1] 100% | residual activity [2] 100% | inhibition [3] 8.83% | residual activity [4] 79% | residual activity [5] 100% | residual activity [6] 62.8% | residual activity [7] 73.1% | residual activity [8] 100% | residual activity [9] 100% | residual activity [10] 80.9% | residual activity [11] 100% | residual activity [12] 98.3% | residual activity [13] 100% | residual activity [14] 69.9% | residual activity [15] 100% | residual activity [16] 86.7% | residual activity [17] 98.1% | residual activity [18] 89.1% | residual activity [19] 100% | residual activity [20] 100% | residual activity [21] 65.9% | residual activity [22] 88.4% | residual activity [23] 90.8% | residual activity [24] 98.4% | residual activity [25] 100% | residual activity [26] 79.4% | residual activity [27] 100% | residual activity [28] 85% | residual activity [29] 100% | residual activity [30] 100% | residual activity [31] 100% | residual activity [32] 100% | residual activity [33] 100% | residual activity [34] 100% | residual activity [35] 100% | residual activity [36] 50.5% | residual activity [37] 72.8% | residual activity [38] 100% | residual activity [39] 82% | residual activity [40] 100% | residual activity [41] 55.1% | residual activity [42] 100% | residual activity [43] 100% | residual activity [44] 100% | residual activity [45] 83.7%
